According to patent publication US20260317272A1, “USE OF STROBILURIN TYPE COMPOUNDS FOR COMBATING PHYTOPATHOGENIC FUNGI CONTAINING AN AMINO ACID SUBSTITION F129L IN THE MITOCHONDRIAL CYTOCHROME B PROTEIN CONFERRING RESISTANCE TO QO INHIBITORS XVI” (priority 2023, published 2026):

Key:
[1] = test system: Alternaria solani; assay: Use Example 1: preventative fungicidal control of early blight on tomatoes (ALTESO P1); type: in vivo; settings: 63 ppm, tomato, treated 1 day before inoculation, F129L strain, assessed after 5 days, untreated 85
Method: (§1) The compound was dissolved in a mixture of acetone and/or dimethylsulfoxide and the wetting agent/emulsifier Wettol, which is based on ethoxylated alkylphenoles, in a ratio (volume) solvent-emulsifier of 99 to 1 to give a total volume of 5 ml. Subsequently, water was added to total volume of 100 ml. This stock solution was then diluted with the described solvent-emulsifier-water mixture to the final concentration given in the tables below.
Use Example 1. Preventative Fungicidal Control of Early Blight on Tomatoes (Alternaria solani) (ALTESO P1)
Young seedlings of tomato plants were grown in pots. These plants were sprayed to run-off with previously described spray solution, containing the concentration of active ingredient or mixture mentioned in the table below. The next day the treated plants were inoculated with an aqueous suspension of Alternaria solani. The strain used contains the amino acid substitution F129L in the mitochondrial cytochrome b protein conferring resistance to Qo inhibitors. Then the trial plants were immediately transferred to a humid chamber. After 5 days at 18 to 20° C. and a saturated relative humidity, the extent of fungal attack on the leaves was visually assessed as % diseased leaf area.

[2] = test system: Phakopsora pachyrhizi; assay: Use Example 2: curative control of soybean rust on soybeans (PHAKPA K2); type: in vivo; settings: 16 ppm, F129L strain, up to 14 days, untreated 90
Method: as §1
Use Example 2. Curative Control of Soybean Rust on Soybeans Caused by Phakopsora pachyrhizi (PHAKPA K2)
Leaves of potted soybean seedlings were inoculated with spores of Phakopsora pachyrhizi. The strain used contains the amino acid substitution F129L in the mitochondrial cytochrome b protein conferring resistance to Qo inhibitors. To ensure the success of the artificial inoculation, the plants were transferred to a humid chamber with a relative humidity of about 95% and 20 to 24° C. for 24 h. The next day the plants were cultivated for 1 day in a greenhouse chamber at 23-27° C. and a relative humidity between 60 and 80%. Then the plants were sprayed to run-off with the previously described spray solution, containing the concentration of active ingredient or their mixture as described below. The plants were allowed to air-dry. Then the trial plants were cultivated up to 14 days in a greenhouse chamber at 23-27° C. and a relative humidity between 60 and 80%. The extent of fungal attack on the leaves was visually assessed as % diseased leaf area.

[3] = test system: Phakopsora pachyrhizi; assay: Use Example 3: protective control of soybean rust on soybeans (PHAKPA P2); type: in vivo; settings: 16 ppm, 2 days before inoculation, F129L strain, up to 14 days, untreated 90
Method: as §1
Use Example 3. Protective Control of Soybean Rust on Soybeans Caused by Phakopsora pachyrhizi (PHAKPA P2)
Leaves of potted soybean seedlings were sprayed to run-off with the previously described spray solution, containing the concentration of active ingredient or their mixture as described below. The plants were allowed to air-dry. The trial plants were cultivated for 2 days in a greenhouse chamber at 23-27° C. and a relative humidity between 60 and 80%. Then the plants were inoculated with spores of Phakopsora pachyrhizi. The strain used contains the amino acid substitution F129L in the mitochondrial cytochrome b protein conferring resistance to Qo inhibitors. To ensure the success the artificial inoculation, the plants were transferred to a humid chamber with a relative humidity of about 95% and 20 to 24° C. for 24 hr. The trial plants were cultivated for up to 14 days in a greenhouse chamber at 23 to 27° C. and a relative humidity between 60 and 80%. The extent of fungal attack on the leaves was visually assessed as % diseased leaf area, the disease level of untreated controls was usually higher than 85%.

[4] = test system: Puccinia triticina; assay: Use Example 6: preventative control of brown rust on wheat (PUCCRT P7); type: in vivo, Puccinia triticina (syn. P. recondita); settings: 16 ppm, seven days before inoculation, 9 to 12 days, untreated 85
Method: as §1
Use Example 6. Preventative Control of Brown Rust on Wheat Caused by Puccinia triticina (Syn. P. recondita) (PUCCRT P7)
(§2) The first two developed leaves of potted wheat seedling were sprayed to run-off with previously described spray solution, containing the concentration of active ingredient or their mixture as described below. Seven days later the plants were dusted with spores of Puccinia triticina. To ensure the success of the artificial inoculation, the plants were transferred to a humid chamber without light and a relative humidity of 95 to 99% and 20 to 24° C. for 24 h. Then the trial plants were cultivated for 9 to 12 days in a greenhouse chamber at 20 to 24° C. and a relative humidity between 65 and 70%. The extent of fungal attack on the leaves was visually assessed as % diseased leaf area.

[5] = test system: Puccinia striiformis; assay: Use Example 9: curative control of wheat stripe rust on wheat (PUCCST K4); type: in vivo; settings: 16 ppm, untreated 90%
Method: as §1
Use Example 9. Curative Control of Wheat Stripe Rust on Wheat Caused by Puccinia striiformis (PUCCST K4)
The first two developed leaves of potted wheat seedling were inoculated with spores of Puccinia striiformis. To ensure the success of the artificial inoculation, the plants were transferred to a chamber without light and a temperature of 5° C. for 24 h. Then the trial plants were cultivated for 3 days in a greenhouse chamber at 16° C. and a relative humidity of minimum 75%. The plants were sprayed to run-off with the previously described spray solution, containing the concentration of active ingredient or their mixture as described below. The plants were allowed to air-dry. Then the trial plants were cultivated for up to 12 days in a greenhouse chamber at 16° C. and a relative humidity of minimum 75%. The extent of fungal attack on the leaves was visually assessed as % diseased leaf area.

[6] = test system: Pyrenophora teres; assay: Use Example 12: control of net blotch on barley (PYRNTE P4); type: in vivo, Pyrenophora (syn. Drechslera) teres; settings: F129L strain, inoculated seven days later, 16 ppm, untreated 80%
Method: as §1
Use Example 12. Control of Net Blotch on Barley Caused by Pyrenophora teres (PYRNTE P4)
The first fully developed leaves of potted barley plants were sprayed to run-off previously described spray solution, containing the concentration of active ingredient or their mixture mentioned in the table below. Seven days later the treated plants were inoculated with an aqueous spore suspension of Pyrenophora (syn. Drechslera) teres. The strain used contains the amino acid substitution F129L in the mitochondrial cytochrome b protein conferring resistance to Qo inhibitors. After up to 19 days of cultivation at 20-24° C. and a relative humidity close to 70%, the extent of fungal attack on the leaves was visually assessed as % diseased leaf area.

[7] = test system: Puccinia triticina; assay: Use Example 7: preventative control of brown rust on wheat (PUCCRT P10); type: in vivo, Puccinia triticina (syn. P. recondita); settings: 16 ppm, ten days before inoculation, 6 days, untreated 80
Method: as §1
Use Example 7. Preventative Control of Brown Rust on Wheat Caused by Puccinia triticina (Syn. P. recondita) (PUCCRT P10)
as §2, with “below. Ten” for “below. Seven”, “were inoculated” for “were dusted”, “for 6” for “for 9 to 12”, “at 20-24°” for “at 20 to 24°”

Compound | Diseased leaf area (%) [1] | Diseased leaf area (%) [2] | Diseased leaf area (%) [3] | Diseased leaf area (%) [4] | Diseased leaf area (%) [5] | Diseased leaf area (%) [6] | Diseased leaf area (%) [7]
CNC(=O)/C(=N/OC)c1cccc(C)c1CO/N=C(\COC)c1c(F)cc(F)cc1F [Compound 1, (2E)-2-methoxyimino-2-[2-[[(Z)-[2-methoxy-1-(2,4,6-trifluorophenyl)ethylidene]amino]oxymethyl]-3-methyl-phenyl]-N-methyl-acetamide] | 11% | 0% | 0% | 10% | 0% | 10% | –
CO/C=C(/C(=O)OC)c1cccc(C)c1CO/N=C(\COC)c1c(F)cc(F)cc1F [Compound 4, methyl (E)-3-methoxy-2-[2-[[(Z)-[2-methoxy-1-(2,4,6-trifluorophenyl)ethylidene]amino]oxymethyl]-3-methyl-phenyl]prop-2-enoate] | 5% | 5% | 0% | 7% | 15% | 4% | 12%
COC/C(=N\OCc1c(C)cccc1/C(=N\OC)C(=O)OC)c1c(F)cc(F)cc1F [Compound 2, methyl (2E)-2-methoxyimino-2-[2-[[(Z)-[2-methoxy-1-(2,4,6-trifluorophenyl)ethylidene]amino]oxymethyl]-3-methyl-phenyl]acetate] | 13% | 2% | 6% | – | – | 13% | –
CO/C=C(/C(=O)OC)c1cccc(C)c1CO/N=C(\COC)c1ccc(Cl)cc1Cl [Compound 6, methyl (E)-2-[2-[[(Z)-[1-(2,4-dichlorophenyl)-2-methoxy-ethylidene]amino]oxymethyl]-3-methyl-phenyl]-3-methoxy-prop-2-enoate] | – | – | 13% | 11% | – | – | 5%
CNC(=O)/C(=N/OC)c1cccc(C)c1CO/N=C(\COC)c1ccc(F)c(F)c1 [Compound 5, (2E)-2-[2-[[(Z)-[1-(3,4-difluorophenyl)-2-methoxy-ethylidene]amino]oxymethyl]-3-methylphenyl]-2-methoxyimino-N-methyl-acetamide] | 3% | 6% | 0% | 6% | 1% | 4% | 12%
CNC(=O)/C(=N/OC)c1cccc(C)c1CO/N=C(\COC)c1c(F)cc(OC)cc1F [Compound 7, (2E)-2-[2-[[(Z)-[1-(2,6-difluoro-4-methoxy-phenyl)-2-methoxy-ethylidene]amino]oxymethyl]-3-methyl-phenyl]-2-methoxyimino-N-methyl-acetamide] | – | 4% | 0% | 6% | 0% | 6% | 4%
CO/C=C(/C(=O)OC)c1cccc(C)c1CO/N=C(\COC)c1ccc(F)cc1Cl [Compound 3] | 5% | – | 1% | 9% | 7% | – | –
